One series has as its system Rattus norvegicus. The following applies: for LD50: acute, oral, mortality.
Another series has as its system Bibionidae. The following applies: chronic/long-term; duration: 28 days; development.
The subject of the next series is Canidae. The following applies: oral, Dog Other, hematological.
Another series relates to Daphnia magna. The following applies: chronic/long-term; duration: 21 days; reproduction.
The test system of a further series is Apis mellifera. The following applies: acute, duration: 48 hours, mortality.
For a further series, the system named is Anas platyrhynchos. The following applies: short-term; oral; feed; mortality.

Experimental findings from EPA's ToxValDB 9.5 (doi:10.2903/j.efsa.2013.3461) are described below.

≈ marks a conversion by molar mass, not a printed value.

In the series with Rattus norvegicus, `Cc1cc(C)cc(C(=O)N(NC(=O)c2ccc3c(c2C)C(O)CCO3)C(C)(C)C)c1` (configuration not stated) [Chromafenozide metabolite (M 010)] showed an LD50 of over 2000 mg/kg.

Consider `Cc1cc(C)cc(C(=O)N(NC(=O)c2ccc3c(c2C)CCCO3)C(C)(C)C)c1` [Chromafenozide], for which the NOEC in the series with Bibionidae is 0.047 mg/kg; with Oncorhynchus mykiss (chronic/long-term, duration: 28 days, growth) it was 0.96 mg/L; in the series with Colinus virginianus (reproduction developmental, reproduction), 79 mg/kg-day; in the series with Daphnia magna it was 0.84 mg/L; in the series on Tagia sp. (chronic/long-term, duration: 8 weeks, reproduction), 49 mg/kg. Besides, the LC50 is 4.5 µg/mL (≈ 11.4 µM) in the series with Oncorhynchus mykiss (acute, duration: 96 hours, mortality); over 1840 mg/kg-day with Colinus virginianus (acute, oral, diet, mortality); over 1000 mg/kg in the series with Tagia sp. (acute, duration: 14 days, mortality); over 2160 mg/kg-day in the series on Anas platyrhynchos. Moreover, the LD50 in the series with Colinus virginianus (acute, oral, mortality) is over 2000 mg/kg; with Rattus norvegicus, over 5000 mg/kg; in the series on Apis mellifera (dermal), over 100 µg/piece; with Apis mellifera (oral, unspecified) it was over 133 µg/piece. In the series with Rattus norvegicus (reproduction developmental, histopathology: nonneoplastic), this molecule displayed an NOEL of 128 mg/kg-day. Further, the NOAEL in the series on Canidae (chronic, duration: 52 weeks) was 27 mg/kg-day; with Canidae (subchronic, duration: 90 days) it was 52 mg/kg-day.
